According to US10981926B2 (Janssen Pharmaceutica NV, priority 2016, dated 2021):
Read-outs that look alike come from different tables or passages of the source.

What was measured:
Format in all cases: cell-based
AR in LNCaP cells = AR in LNCaP cells (Homo sapiens (Human), UniProt P10275, T878A); assay: LNCaP AR Localization Assay; details: 4 h, read-out: Inhibition of translocation
Protocol: LNCaP cells were expanded in RPMI 10% FBS in T150 flasks. The cells were dislodged with 0.25% Trypsin, washed in complete media, centrifuged (300 g, 3 min), and the supernatant aspirated. The cells were resuspended in RPMI phenol-red free media with 1% charcoal-stripped serum (CSS) and counted using a ViCELL (Beckman-Coulter). Three million cells in 7 mL of RPMI CSS were seeded into 100 mm dishes and incubated overnight at 37° C. 5% CO2. The following morning, compound dilutions were prepared in RPMI CSS using 50 mM stock solutions and added directly to the cells to obtain the final concentration of 10 μM. The dishes were placed into the incubator for 4 h. After 4 h, cell scrapers were used to dislodge the cells and the media/cell solution was centrifuged, supernatant aspirated, and then washed with Cell Wash Buffer (Protein Simple). The pellets were stored at −80° C. or processed immediately using the Subcellular Protein Fractionation Kit for Cultured Cells (Thermo-Fisher). The fractions obtained from this kit were stored at −80° C. Later, the samples' protein concentration was determined using the BCA Assay Kit (Thermo-Fisher) and the fraction lysates normalized to 0.6 mg/mL. The lysates were run on the Wes Simple Western platform (ProteinSimple). The data was analyzed, normalized to the total AR, and plotted in GraphPad Prism. […]

[1] = target: F876L mutant Androgen Receptor (AR-F876L) (Homo sapiens (Human), UniProt P10275, F877L); assay: LNCaP-AR-F876L ANT reporter assay (antagonist mode)
VCaP cells = assay: Prostate Cancer Cell Viability Assay-VCaP; details: Homo sapiens, 120 h, 5 days, CellTiter-Glo
Protocol: VCaP cells were counted and seeded into black 384-well plates with clear bottoms at a concentration of 125,000 cells per mL in phenol red-free DMEM containing 10% Charcoal Stripped Serum. 16 μL of the suspension was added per well and incubated for 48 h to allow the cells to adhere. After 48 hours, a 12 point serial semilog dilution of each compound was added to the cells in 16 μL at a final concentration of 100 μM to 0.0003 μM. The compounds of Formula (I) were also run in antagonist mode using 30 pM R1881 in which 8 μL of the compound was added to the cells followed by 8 μL of R1881. After 5 days of incubation at 37° C., 16 μL Of CellTiter-Glo (Promega) was added to the cells and the relative luminescence units (RLUs) of each well determined using the Envision. The percent stimulation and % inhibition were determined for each sample and plotted using GraphPad Prism.

F876L-VP16 = F876L-VP16 (Homo sapiens (Human), UniProt P10275, F877L); assay: AR-VP16 DNA Binding Assay (VP16 F876L); details: HepG2, antagonist mode, 1 nM R1881, 48 hours
Protocol: HepG2 cells were maintained in EMEM supplemented with 10% FBS. One day before transfection, the media was changed to EMEM with 10% CSS. T-150 flasks were transiently transfected using 120 μL Lipofectamine 2000 (Life Technologies), 24.5 μg AR-VP16 or F876L-VP16 (expression vector) and 49 μg 4×ARE-Luciferase (reporter vector) in OptiMEM and the flasks were incubated overnight. Cells were then trypsinized, counted and resuspended at 500,000 cells/mL. For agonist mode, the compounds were serially diluted and 50 μL of the compound was added per well. 50 μL of the cells were added to each well and incubated for 48 hours. For antagonist mode, a final concentration of 90 pM (VP16 AR) or 1 nM (VP16 F876L) R1881 was added to the plate and incubated for 48 hours. The plates were then assayed using SteadyGlo and read on the Envision. Percent Stimulation and Inhibition were determined and analyzed using GraphPad Prism.

AR T877A = AR T877A (Homo sapiens (Human), UniProt P10275, T878A); assay: Luciferase Transcriptional Reporter Assay, AR T877A (HepG2)
Protocol: (§1) HepG2 cells were maintained in EMEM supplemented with 10% FBS. One day before transfection, the media was changed to EMEM with 10% CSS. T-150 flasks were transiently transfected using 120 μL Lipofectamine 2000 (Life Technologies), 30 μg mutant cDNA (expression vector)—mutant cDNA tested were L701H, T877A, W741C and H874Y—and 40 μg 4×ARE-Luciferase (reporter vector) in OptiMEM and the flasks were incubated overnight. Cells were then trypsinized, counted and resuspended at 500,000 cells/mL. For agonist mode, the compounds of Formula (I) were serially diluted and 50 μL of the compound was added per well. 50 μL of the cells were added to each well and incubated for 48 hours. For antagonist mode, a final concentration of 90 pM R1881 was added to the diluted compounds and incubated for 48 hours. The plates were then assayed using SteadyGlo and read on the Envision. Percent Stimulation and Inhibition were determined and analyzed using GraphPad Prism.
(§2) F876L agonism was evident at 3 and 10 μM (5%) but zero at 30 μM. The antagonistic (IC50) and agonistic (EC50) values for each of the AR cDNA used in the reporter assays are summarized. All values are calculated relative to the activity of R1881 induced androgen receptor activity (n≥3). Also indicated are the maximal inhibition and extent of induction of androgen dependent signaling (%).

[2] = target: T1, wild-type Androgen Receptor (AR-wt) (Homo sapiens (Human), UniProt P10275); assay: LNCaP-AR-wt ANT reporter assay (antagonist mode)
[3] = target: T1, wild-type Androgen Receptor (AR-wt); assay: LNCaP-AR-wt AG reporter assay (agonist mode)
AR H874Y = AR H874Y (Homo sapiens (Human), UniProt P10275, H875Y); assay: Luciferase Transcriptional Reporter Assay, AR H874Y (HepG2)
Protocol: as §1, §2

AR W741C = AR W741C (Homo sapiens (Human), UniProt P10275, W742C); assay: Luciferase Transcriptional Reporter Assay, AR W741C (HepG2)
Protocol: as §1, §2

[4] = antagonist mode, pIC50 = −Log10(IC50 in Molar)
[5] = maximum % inhibition of R1881 control response over the tested concentration range

Chain of AR W741C (P10275 whole entry W742C): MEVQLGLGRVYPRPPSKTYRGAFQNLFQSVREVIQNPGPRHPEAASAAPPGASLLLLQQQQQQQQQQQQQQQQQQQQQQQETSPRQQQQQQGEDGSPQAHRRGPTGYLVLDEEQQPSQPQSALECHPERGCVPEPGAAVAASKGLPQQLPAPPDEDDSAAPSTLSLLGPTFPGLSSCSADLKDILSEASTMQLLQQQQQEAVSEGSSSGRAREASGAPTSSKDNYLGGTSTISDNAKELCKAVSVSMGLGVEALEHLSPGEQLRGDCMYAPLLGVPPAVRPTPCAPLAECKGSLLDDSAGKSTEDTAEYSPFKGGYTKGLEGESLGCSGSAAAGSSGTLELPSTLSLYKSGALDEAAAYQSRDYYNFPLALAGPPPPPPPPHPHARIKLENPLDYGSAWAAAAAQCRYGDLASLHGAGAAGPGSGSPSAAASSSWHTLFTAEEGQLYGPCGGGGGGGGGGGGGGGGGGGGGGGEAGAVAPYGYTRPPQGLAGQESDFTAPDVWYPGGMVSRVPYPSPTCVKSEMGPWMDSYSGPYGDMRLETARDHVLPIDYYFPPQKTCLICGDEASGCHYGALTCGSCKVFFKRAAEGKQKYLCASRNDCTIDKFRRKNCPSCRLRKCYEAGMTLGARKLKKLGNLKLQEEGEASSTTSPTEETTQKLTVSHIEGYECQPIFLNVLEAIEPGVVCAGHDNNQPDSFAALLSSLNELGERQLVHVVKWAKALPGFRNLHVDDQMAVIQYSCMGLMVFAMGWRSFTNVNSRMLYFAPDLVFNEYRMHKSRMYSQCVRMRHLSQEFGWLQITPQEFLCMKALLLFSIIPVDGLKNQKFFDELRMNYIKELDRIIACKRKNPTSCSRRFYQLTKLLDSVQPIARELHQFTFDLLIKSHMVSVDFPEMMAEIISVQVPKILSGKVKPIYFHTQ
Chain of AR H874Y (P10275 whole entry H875Y): as the sequence (P10275 whole entry W742C) above, with C742W, H875Y counted along it
T1 sequence (P10275 whole entry): as the sequence (P10275 whole entry W742C) above, with C742W counted along it
Chain of AR T877A (P10275 whole entry T878A): as the sequence (P10275 whole entry W742C) above, with C742W, T878A counted along it
Chain of F876L mutant Androgen Receptor (AR-F876L) (P10275 whole entry F877L): as the sequence (P10275 whole entry W742C) above, with C742W, F877L counted along it
Chain of F876L-VP16 (P10275 whole entry F877L): as the sequence (P10275 whole entry W742C) above, with C742W, F877L counted along it
Chain of AR in LNCaP cells (P10275 whole entry T878A): as the sequence (P10275 whole entry W742C) above, with C742W, T878A counted along it

inhibition at 10 µM (AR in LNCaP cells): 50% | LNCaP-AR-F876L ANT pIC50 [1, 4]: 7.43 | LNCaP-AR-F876L ANT MAX % Inh [1, 5]: 100.0% | IC50 (VCaP cells): 270 nM | IC50 (F876L-VP16): 15 nM | EC50 (AR T877A; HepG2, agonist mode, 48 hours, read-out: Agonism EC50, AR construct T877A): 2290 nM | Emax (AR T877A; HepG2, agonist mode, relative to R1881, read-out: Agonism % Emax, AR construct T877A): 10% | IC50 (AR T877A; HepG2, antagonist mode, 90 pM R1881, 48 hours, read-out: Antagonism IC50, AR construct T877A): 6810 nM | Emax (AR T877A; HepG2, antagonist mode, maximal inhibition, read-out: Antagonism % Emax, AR construct T877A): 80% | LNCaP-AR-wt ANT pIC50 [2, 4]: 7.27 | LNCaP-AR-wt ANT MAX % Inh [2, 5]: 101.1% | EC50 ([3]; agonist mode, pEC50 = −Log10(EC50 in Molar), read-out: LNCaP-AR-wt AG pEC50 (converted)): > 15100 nM | LNCaP-AR-wt AG MAX % Stim ([3]; maximum % stimulation (agonist response) over the tested concentration range): −0.1% | Emax (AR H874Y; HepG2, agonist mode, relative to R1881, read-out: Agonism % Emax, AR construct H874Y): 0% | IC50 (AR H874Y; HepG2, antagonist mode, 90 pM R1881, 48 hours, read-out: Antagonism IC50, AR construct H874Y): 16800 nM | Emax (AR H874Y; HepG2, antagonist mode, maximal inhibition, read-out: Antagonism % Emax, AR construct H874Y): 80% | EC50 (AR W741C; HepG2, agonist mode, 48 hours, read-out: Agonism EC50, AR construct W741C): 2830 nM | Emax (AR W741C; HepG2, agonist mode, relative to R1881, read-out: Agonism % Emax, AR construct W741C): 0% | IC50 (AR W741C; HepG2, antagonist mode, 90 pM R1881, 48 hours, read-out: Antagonism IC50, AR construct W741C): 12300 nM | Emax (AR W741C; HepG2, antagonist mode, maximal inhibition, read-out: Antagonism % Emax, AR construct W741C): 85%
Compound: N#Cc1ncc(N2C(=O)C3(CCC3)N(c3ccc(OC4CCNCC4)nc3)C2=S)cc1C(F)(F)F [Cpd 43, 5-[5-oxo-8-[6-(4-piperidyloxy)-3-pyridyl]-7-thioxo-6,8-diazaspiro[3.4]octan-6-yl]-3-(trifluoromethyl)pyridine-2-carbonitrile]
